Assay results from patent US6585964B1, “Method for preventing or minimizing biodegradation of a substance” (Biospherics Incorporated, priority 1999, dated 2003).
Square brackets hold non-standard residues; d marks the D form. Peptide text beside a SMILES is read from it. * marks the point of attachment. Cbz = O=C(OCc1ccccc1)*

Tests used:
[1] = tested on: sense of smell; assay: Human smell test of menthol enantiomers evaporated from acetone solution in Petri dishes; format: in vivo; settings: 0.001M solution in acetone, twenty drops, acetone evaporated at room temperature; six human subjects, test performed twice each
Experimental: The naturally-occurring optical isomer of menthol (1R,2S,5R)−(−) is used as a fragrance in a variety of products, such as perfumes, gums, and cigarettes. Both the natural and the unnatural (1S,2R,5S)−(+) optical isomer of menthol were obtained in 99% purity. A 0.001M solution of each enantiomer was prepared in reagent grade acetone. The solutions were allowed to equilibrate at room temperature for approximately one hour. Twenty drops of each solution were pipetted into separate glass Petri dishes. All glassware was clean. The acetone was then allowed to evaporate at room temperature. A human subject then smelled the two Petri dishes separately and recorded any sensations. The subject had been instructed to determine the presence of odor in the Petri dishes, and, if odor emanated from each, to determine whether the odors were the same or different. The test was performed twice on each of six human subjects, three female and three male. Each subject was given freshly prepared Petri dish servings to smell, and each immediately recorded his or hers impressions without communicating with the other subjects.

[2] = tested on: carboxypeptidase; settings: compared with the L-enantiomorph, which is hydrolysed; cited from earlier work

For `CC1CC[C@H](C(C)C)[C@@H](O)C1` (stereo partly drawn) [unnatural form of menthol, (1S,2R,5S)-(+)-Menthol], the “odor the same as or different from the natural form” value [1] was “the same as that of the natural form” and the presence of odor [1] was “had odor”.

For `O=C(CNC(=O)OCc1ccccc1)N[C@H](Cc1ccccc1)C(=O)O` [carbobenzoxyglycyl-D-phenalalanine] (Cbz-Gly-[dF]-OH), the “action of carboxypeptidase (hydrolysis) on the compound” value [2] is listed as “no measurable action”.
